Reference: patent US9085555B2, “Complement pathway modulators and uses thereof” (priority 2011, dated 2015)

Target: Factor D (Homo sapiens (Human), UniProt P00746)
Assay: biochemical
Format: biochemical
Details: read-out: IC50

Chain of Factor D (P00746 26-253): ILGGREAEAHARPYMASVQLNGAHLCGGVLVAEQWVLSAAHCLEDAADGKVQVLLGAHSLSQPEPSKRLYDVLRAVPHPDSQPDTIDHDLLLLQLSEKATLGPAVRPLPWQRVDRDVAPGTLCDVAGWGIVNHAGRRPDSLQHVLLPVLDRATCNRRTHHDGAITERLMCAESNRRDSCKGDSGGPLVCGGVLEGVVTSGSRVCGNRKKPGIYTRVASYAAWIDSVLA

| Compound | IC50 [µM] |
| --- | --- |
| NC(=O)n1cc(NC(=O)N2CC[C@H](N)[C@H]2C(=O)NCc2cccc(Cl)c2)c2ccccc21 [Example 421, 2S,3S)-3-Amino-pyrrolidine-1,2-dicarboxylic acid 1-[(1-carbamoyl-1H-indol-3-yl)-amide]2-(3-chloro-benzylamide] | 9.3 |
| CNC[C@@]1(F)C[C@@H](C(=O)NCc2cccc(Cl)c2F)N(C(=O)Nc2cn(C(N)=O)c3ccccc23)C1 [Example 424, 2S,4S)-4-Fluoro-4-methylaminomethyl-pyrrolidine-1,2-dicarboxylic acid 1-[(1-carbamoyl-1H-indol-3-yl)-amide]2-(3-chloro-2-fluoro-benzylamide] | 0.068 |
| CN[C@H]1C[C@@H](C(=O)NCc2cccc(Cl)c2F)N(C(=O)Nc2cn(C(N)=O)c3ccccc23)C1 [Example 425, 2S,4S)-4-Methylamino-pyrrolidine-1,2-dicarboxylic acid 1-[(1-carbamoyl-1H-indol-3-yl)-amide]2-(3-chloro-2-fluoro-benzylamide] | 1.23 |
| COCCN[C@H]1C[C@@H](C(=O)NCc2cccc(Cl)c2F)N(C(=O)Nc2cn(C(N)=O)c3ccccc23)C1 [Example 426, 2S,4S)-4-(2-Methoxy-ethylamino)-pyrrolidine-1,2-dicarboxylic acid 1-[(1-carbamoyl-1H-indol-3-yl)-amide]2-(3-chloro-2-fluoro-benzylamide] | 0.436 |
| CN(C)[C@H]1C[C@@H](C(=O)NCc2cccc(Cl)c2F)N(C(=O)Nc2cn(C(N)=O)c3ccccc23)C1 [Example 427, 2S,4S)-4-Dimethylamino-pyrrolidine-1,2-dicarboxylic acid 1-[(1-carbamoyl-1H-indol-3-yl)-amide]2-(3-chloro-2-fluoro-benzylamide] | 0.665 |
| COC1(OC)C[C@@H](C(=O)NCc2cccc(Cl)c2F)N(C(=O)Nc2cn(C(N)=O)c3ccccc23)C1 [Example 428, S)-4,4-Dimethoxy-pyrrolidine-1,2-dicarboxylic acid 1-[(1-carbamoyl-1H-indol-3-yl)-amide]2-(3-chloro-2-fluoro-benzylamide] | 0.478 |
| NC(=O)n1cc(NC(=O)N2C[C@@H](N)[C@H](O)[C@H]2C(=O)NCc2cccc(Cl)c2F)c2ccccc21 [Example 429, 2S,3S,4R)-4-Amino-3-hydroxy-pyrrolidine-1,2-dicarboxylic acid 1-[(1-carbamoyl-1H-indol-3-yl)-amide]2-(3-chloro-2-fluoro-benzylamide] | 1.04 |
| NC(=O)n1cc(NC(=O)N2C[C@@H](N)[C@H](F)[C@H]2C(=O)NCc2cccc(Cl)c2F)c2ccccc21 [Example 430, 2R,3S,4R)-4-Amino-3-fluoro-pyrrolidine-1,2-dicarboxylic acid 1-[(1-carbamoyl-1H-indol-3-yl)-amide]2-(3-chloro-2-fluoro-benzylamide] | 0.058 |
| NC(=O)n1cc(NC(=O)N2C[C@H](F)[C@@H](N)[C@H]2C(=O)NCc2cccc(Cl)c2F)c2ccccc21 [Example 431, 2S,3S,4S)-3-Amino-4-fluoro-pyrrolidine-1,2-dicarboxylic acid 1-[(1-carbamoyl-1H-indol-3-yl)-amide]2-(3-chloro-2-fluorobenzylamide] | 0.031 |
| NC(=O)n1cc(NC(=O)N2NCC[C@H]2C(=O)NCc2cccc(Cl)c2F)c2ccccc21 [Example 432] | 0.007 |
| NC(=O)n1cc(NC(=O)N2NCC[C@@H]2C(=O)NCc2cccc(Cl)c2F)c2ccccc21 [Example 433] | 1.79 |
| NC(=O)n1cc(NC(=O)N2NCCC2C(=O)NCc2cccc(Cl)c2)c2ccccc21 (stereo not drawn) [Example 434, Pyrazolidine-1,5-dicarboxylic acid 1-[(1-carbamoyl-1H-indol-3-yl)-amide]5-(3-chloro-benzylamide)] | 0.035 |
| COC(=O)[C@H]1C[C@@H](C(=O)Nc2cccc(OC(F)(F)F)c2F)N(C(=O)Nc2cn(C(N)=O)c3ccccc23)C1 [Example 435, (3S,5S)-1-(1-Carbamoyl-1H-indol-3-ylcarbamoyl)-5-(2-fluoro-3-trifluoromethoxy-phenylcarbamoyl)-pyrrolidine-3-carboxylic acid methyl ester] | 0.25 |
| NC(=O)n1cc(NC(=O)N2C[C@@H](CO)C[C@H]2C(=O)NCc2c(F)ccc(Cl)c2F)c2ccccc21 [Example 436, 2S,4S)-4-Hydroxymethyl-pyrrolidine-1,2-dicarboxylic acid 1-[(1-carbamoyl-1H-indol-3-yl)-amide]2-(3-chloro-2,6-difluoro-benzylamide] | 0.15 |
| NC(=O)c1cc(Br)cc(NC(=O)[C@@H]2C[C@@H](F)CN2C(=O)Nc2cn(C(N)=O)c3ccccc23)c1 [Example 437, (2S,4R)-4-Fluoro-pyrrolidine-1,2-dicarboxylic acid 2-[(3-bromo-5-carbamoyl-phenyl)-amide]1-[(1-carbamoyl-1H-indol-3-yl)-amide]] | 0.107 |
| COCCNC(=O)c1cc(Cl)c(F)c(CNC(=O)[C@@H]2C[C@@H](F)CN2C(=O)Nc2cn(C(N)=O)c3ccccc23)c1 [Example 438, (2S,4R)-4-Fluoro-pyrrolidine-1,2-dicarboxylic acid 1-[(1-carbamoyl-1H-indol-3-yl)-amide]2-[3-chloro-2-fluoro-5-(2-methoxy-ethylcarbamoyl)-benzylamide]] | 0.924 |
| CC(C)c1cc(NC(=O)[C@@H]2CCCN2C(=O)Nc2cn(C(N)=O)c3ccccc23)on1 [Example 439, (S)-Pyrrolidine-1,2-dicarboxylic acid 1-[(1-carbamoyl-1H-indol-3-yl)-amide]2-[(3-isopropyl-isoxazol-5-yl)-amide]] | 1.25 |
| NC(=O)n1cc(NC(=O)N2CCC[C@H]2C(=O)Nc2cc(-c3ccccc3)no2)c2ccccc21 [Example 440, (S)-Pyrrolidine-1,2-dicarboxylic acid 1-[(1-carbamoyl-1H-indol-3-yl)-amide]2-[(3-phenyl-isoxazol-5-yl)-amide]] | 1.05 |
| NC(=O)n1cc(CC(=O)N2CCC[C@H]2C(=O)Nc2cccc(OC(F)(F)F)c2)c2ccccc21 [Example 441, 3-{2-[(S)-2-(3-trifluoromethoxy-phenylcarbamoyl)-pyrrolidin-1-yl]-2-oxo-ethyl}-indole-1-carboxylic acid amide] | 5.62 |
| NC(=O)n1cc(CC(=O)N2C[C@H](F)C[C@H]2C(=O)Nc2cccc(OC(F)(F)F)c2F)c2ccccc21 [Example 442, 3-{2-[(2S,4R)-4-Fluoro-2-(2-fluoro-3-trifluoromethoxy-phenylcarbamoyl)-pyrrolidin-1-yl]-2-oxo-ethyl}-indole-1-carboxylic acid amide] | 0.85 |
| NC(=O)n1cc(CC(=O)N2C[C@@H]3C[C@@H]3[C@H]2C(=O)N[C@H](CO)c2cccc(Cl)c2F)c2ccccc21 [Example 443, 3-(2-{(1S,2S,5R)-2-[(S)-1-(3-Chloro-2-fluoro-phenyl)-2-hydroxy-ethylcarbamoyl]-3-azabicyclo[3.1.0]hex-3-yl}-2-oxo-ethyl)-indole-1-carboxylic acid amide] | 4.47 |
| NC(=O)n1cc(CC(=O)N2CC[C@@H](O)[C@H]2C(=O)NCc2cccc(Cl)c2F)c2ccccc21 [Example 444, 3-{2-[(2S,3R)-2-(3-Chloro-2-fluoro-benzylcarbamoyl)-3-hydroxy-pyrrolidin-1-yl]-2-oxo-ethyl}-indole-1-carboxylic acid amide] | 0.243 |
| CN(C)C[C@@]1(F)C[C@@H](C(=O)NCc2cccc(Cl)c2F)N(C(=O)Cc2cn(C(N)=O)c3ccccc23)C1 [Example 445, 3-{2-[(2S,4S)-2-(3-Chloro-2-fluoro-benzylcarbamoyl)-4-dimethylaminomethyl-4-fluoro-pyrrolidin-1-yl]-2-oxo-ethyl}-indole-1-carboxylic acid amide] | 0.58 |
| NC(=O)n1cc(CC(=O)N2[C@@H]3C[C@@H]3C[C@H]2C(=O)NCc2cccc(Cl)c2F)c2ccccc21 [Example 446, 3-{2-[(1R,3S,5R)-3-(3-Chloro-2-fluoro-benzylcarbamoyl)-2-aza-bicyclo[3.1.0]hex-2-yl]-2-oxo-ethyl}-indole-1-carboxylic acid amide] | 0.016 |
| NC(=O)n1cc(CC(=O)N2C[C@H](F)C[C@H]2C(=O)NCc2cccc(Cl)c2F)c2ccccc21 [Example 448, 3-{2-[(2S,4R)-2-(3-Chloro-2-fluoro-benzylcarbamoyl)-4-fluoro-pyrrolidin-1-yl]-2-oxo-ethyl}-indole-1-carboxylic acid amide] | 0.026 |
| NC(=O)n1cc(CC(=O)N2[C@@H]3C[C@@H]3C[C@H]2C(=O)N[C@H](CO)c2cccc(Cl)c2F)c2ccccc21 [Example 449, 3-(2-{(1R,3S,5R)-3-[(S)-1-(3-Chloro-2-fluoro-phenyl)-2-hydroxy-ethylcarbamoyl]-2-aza-bicyclo[3.1.0]hex-2-yl}-2-oxo-ethyl)-indole-1-carboxylic acid amide] | 0.051 |
| NC(=O)n1cc(CC(=O)N2CCS[C@H]2C(=O)NCc2cccc(Cl)c2F)c2ccccc21 [Example 450, 3-{2-[(S)-2-(3-Chloro-2-fluoro-benzylcarbamoyl)-thiazolidin-3-yl]-2-oxo-ethyl}-indole-1-carboxylic acid amide] | 0.025 |
| NC(=O)n1cc(CC(=O)N2C[C@@](F)(CO)C[C@H]2C(=O)NCc2cccc(Cl)c2F)c2ccccc21 [Example 451, 3-{2-[(2S,4R)-2-(3-Chloro-2-fluoro-benzylcarbamoyl)-4-fluoro-4-hydroxymethyl-pyrrolidin-1-yl]-2-oxo-ethyl}-indole-1-carboxylic acid amide] | 0.09 |
| COc1ccc2c(c1)c(CC(=O)N1C3CC3C[C@H]1C(=O)NCc1cccc(Cl)c1F)cn2C(N)=O (stereo partly drawn) [Example 452, 3-{2-[(1R,3S,5R)-3-(3-Chloro-2-fluoro-benzylcarbamoyl)-2-aza-bicylo[3.1.0]hex-2-yl]-2-oxo-ethyl}-5-methoxy-indole-1-carboxylic acid amide] | 0.015 |
| NC(=O)n1cc(CC(=O)N2[C@@H]3C[C@@H]3C[C@H]2C(=O)NCc2cccc(Cl)c2F)c2cc(OCCO)ccc21 [Example 453, 3-{2-[(1R,3S,5R)-3-(3-Chloro-2-fluoro-benzylcarbamoyl)-2-aza-bicyclo[3.1.0]hex-2-yl]-2-oxo-ethyl}-5-(2-hydroxy-ethoxy)-indole-1-carboxylic acid amide] | 0.013 |
